No end group written: not given here.
Columns and labels:
VASP/EVH1 domain [1] = target: T1, VASP/EVH1 domain (Homo sapiens, UniProt P50552); test: Fluorescence titration of ligand peptides; assay type: binding
T1 construct: the EVH1 domain of a completely ^15N-labelled VASP protein
Method: Using the synthetic compound 85, ligand peptides with partially or completely replaced proline sequences were synthesized and investigated for their interaction with the EVH1 domain (pp=building block 85). […] The binding affinities were determined using NMR titration, the kinetic Biacore method, or by means of fluorescence titration.

VASP/EVH1 domain [2] = target: T1, VASP/EVH1 domain; test: NMR titration (15N-1H-HSQC) of the VASP/EVH1 domain with ligand peptide; settings: Binding affinity (NMR), VASP/EVH1 domain in solution; KD from change in chemical shift versus ligand peptide concentration
Method: The interactions between the EVH1 domain of a completely ^15N-labelled VASP protein and the ligand peptides I and II was elucidated using multidimensional NMR-spectroscopic methods. To this end, the EVH1 domain in a solution was titrated with varying amounts of ligand peptide and investigated by recording ^15N-^1H-HSQC-NMR spectra each time. In the event of positive binding interaction, increasing the ligand concentration step by step (10, 20, 50, 100, 200, 500 and 1000 μM) results in a clearly recognizable shift of some domain signals, which can be used to calculate values for the binding constant at a later point in time.
A continuous equilibrium, i.e. [EVH1]-ligand (bound) ? [EVH1]+ligand (unbound), is present in solution so that, depending on the rate of interchange of the ligands, different NMR spectra are obtained (in analogy to the signals of —OH and —NH in the one-dimensional range).
When correlating the changes in the chemical shift of the cross-peaks with the binding strength between domain and ligand peptide, it is possible to calculate values for the binding constant by plotting the change in shift Δδ versus the ligand peptide concentration.

VASP/EVH1 domain [3] = target: T1, VASP/EVH1 domain; test: Biacore (surface plasmon resonance) binding of ligand peptides; settings: Binding affinity (Biacore), initial measurements yet remaining to be verified
From the text: In this method the domain protein is immobilized on the surface of a sensor chip, while a solution of ligand peptide flows across the surface. By measuring the surface plasmon resonance that causes the refractive index to change, it is possible to monitor the binding kinetics in real-time so that the association and dissociation constants can also be determined.

VASP/EVH1 domain [4] = target: T1, VASP/EVH1 domain; assay type: binding
From the text: This can be seen in FIG. 2 wherein the class I EVH1 domain of the human VASP protein was investigated together with a short section from the ActA peptide (332[sequence]344).
(§1) Using a series of different test ligand peptides, it was also possible to gain an overview over the binding affinities.

Mena/EVH1 domain = Mena/EVH1 domain (Homo sapiens, UniProt Q8N8S7); test: biochemical
Chain of Mena/EVH1 domain (Q8N8S7 1-111 limits assumed): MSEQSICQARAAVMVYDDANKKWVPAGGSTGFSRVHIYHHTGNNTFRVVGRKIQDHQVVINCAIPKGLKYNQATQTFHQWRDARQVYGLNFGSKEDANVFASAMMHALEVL
From the text: as §1

T1 sequence (P50552 2-113): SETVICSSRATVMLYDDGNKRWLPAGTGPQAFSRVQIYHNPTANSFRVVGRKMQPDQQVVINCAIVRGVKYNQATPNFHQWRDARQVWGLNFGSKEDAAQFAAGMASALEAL

Row | Compound | Kd (VASP/EVH1 domain [1]) [µM] | further results
1 | CC(C)C[C@H](NC(=O)[C@H](CCC(=O)O)NC(=O)[C@H](CC(=O)O)NC(=O)[C@H](CCC(=O)O)NC(=O)[C@@H](NC(=O)[C@@H]1CCCN1C(=O)[C@@H]1CCCN1C(=O)[C@@H]1CC[C@@H]2C=C[C@H]3CCN(C(=O)[C@H](Cc4ccccc4)NC(=O)[C@H](CCC(=O)O)NC(=O)[C@H](Cc4ccccc4)NC(=O)[C@@H](N)CO)[C@@H]3C(=O)N21)[C@@H](C)O)C(=O)O [SFEFppPPTEDEL] | 82 ± 30 | 
2 | CC(C)C[C@H](NC(=O)[C@H](CCC(=O)O)NC(=O)[C@H](CC(=O)O)NC(=O)[C@H](CCC(=O)O)NC(=O)[C@@H](NC(=O)[C@@H]1CCCN1C(=O)[C@@H]1CC[C@@H]2C=C[C@H]3CCN(C(=O)[C@@H]4CCCN4C(=O)[C@H](Cc4ccccc4)NC(=O)[C@H](CCC(=O)O)NC(=O)[C@H](Cc4ccccc4)NC(=O)[C@@H](N)CO)[C@@H]3C(=O)N21)[C@@H](C)O)C(=O)O [SFEFPppPTEDEL] | 47 ± 14 | Kd (VASP/EVH1 domain [2]): 20 to 35 µM; Kd (VASP/EVH1 domain [3]): 29.3 to 33.3 µM
3 | CC(C)C[C@H](NC(=O)[C@H](CCC(=O)O)NC(=O)[C@H](CC(=O)O)NC(=O)[C@H](CCC(=O)O)NC(=O)[C@@H](NC(=O)[C@@H]1CC[C@@H]2C=C[C@H]3CCN(C(=O)[C@@H]4CC[C@@H]5C=C[C@H]6CCN(C(=O)[C@H](Cc7ccccc7)NC(=O)[C@H](CCC(=O)O)NC(=O)[C@H](Cc7ccccc7)NC(=O)[C@@H](N)CO)[C@@H]6C(=O)N54)[C@@H]3C(=O)N21)[C@@H](C)O)C(=O)O [SFEFppppTEDEL] | 45 ± 15 | 
4 | CC(C)C[C@H](NC(=O)[C@H](CCC(=O)O)NC(=O)[C@H](CC(=O)O)NC(=O)[C@H](CCC(=O)O)NC(=O)[C@@H](NC(=O)[C@@H]1CC[C@@H]2C=C[C@H]3CCN(C(=O)[C@@H]4CCCN4C(=O)[C@@H]4CCCN4C(=O)[C@H](Cc4ccccc4)NC(=O)[C@H](CCC(=O)O)NC(=O)[C@H](Cc4ccccc4)NC(=O)[C@@H](N)CO)[C@@H]3C(=O)N21)[C@@H](C)O)C(=O)O [SFEFPPppTEDEL] | 26 ± 5 | 
5 | FPPPPT [FPPPPT] |  | binding affinity KD (VASP/EVH1 domain [4]): no measurable affinity; Kd (Mena/EVH1 domain): 417 µM
